Measured values taken from patent US20230265378A1, “STIMULATING CELLULAR PRODUCTION OF EXOSOMES” (ROYAL MELBOURNE INSTITUTE OF TECHNOLOGY, priority 2020, published 2023).
Structures can show the parent of a compound that is named as a salt.

What was measured:
intracellular Ca^2+ = test: Calcium influx study, intracellular Ca^2+ levels by Fura-2 AM assay; assay type: cell-based; conditions: amiloride HCl 100 μM 60 mins, thapsigargin 100 nM 25 mins, BAPTA-AM 10 μM 25 mins, in combinations; FIG. 9a iv, v, vi
Protocol: The data are represented in terms of the mean value±the standard error over quadruplicate runs, and the asterisks *, **, *** and **** indicate statistically significant differences with p<0:05, p<0:01, p<0:001 and p<0:0001, respectively.
The cells were seeded at a density of 0:05×10^6 cells per well in a 24-well glass-bottom plate and incubated at overnight in a humidified incubator. After incubation, they were treated with combinations of amiloride HCl (100 μM, for 60 mins)—a Ca^2+ ion channel blocker, thapsigargin (100 nM, for 25 mins)—an endoplasmic reticulum calcium ion inhibitor, and, BAPTA-AM (10 μM, for 25 mins)—a membrane permeable calcium chelator that removes intracellular calcium, following which they were incubated in the presence of 10 μM Fura2-AM for 60 mins at 37° C. to measure the intracellular Ca^2+ levels. The cells were then washed to remove the extracellular dye and replenished with DMEM, taking care to protect them from exposure to light. The media devoid of calcium from the inhibitor-treated cells was subsequently replaced with media containing calcium, and, where appropriate, exposed to the SRBW insonation (i.e. acoustic stimulation). Changes in the fluorescence intensity were measured with a spectrophotometric plate reader (CLARIOstar®, BMG LabTech, Mornington, VIC, Australia).

cells = conditions: within 2 to 72 hrs; dose dependent; cited from earlier work

Molecule	effect on intracellular calcium store (intracellular Ca^2+)	enhancing exosome yield (cells)
N=C(N)NC(=O)c1nc(Cl)c(N)nc1N [amiloride HCl, amiloride hydrochloride]	deplete the intracellular calcium store	–
C[C@H](CCC(=O)O)C[C@H](C)C[C@H](C)C(=O)/C=C(\O)[C@H](C)C[C@H](C)C/C=C/[C@@H](C)[C@@H](O)[C@@H](C)[C@@H](O)C[C@@H]1CC[C@@](C)([C@H]2CC[C@@](C)([C@@H](C)O)O2)O1 [ionomycin]	–	two-and-one-half-fold
C/C=C(/C)C(=O)O[C@H]1C(C)=C2[C@H]([C@@H]1OC(=O)CCCCCCC)[C@@](C)(OC(C)=O)C[C@H](OC(=O)CCC)[C@@]1(O)[C@H]2OC(=O)[C@@]1(C)O [thapsigargin]	deplete the intracellular calcium store	–
calcium phosphate	–	two-and-one-half-fold
